Molecular target: Sodium-dependent dopamine transporter (Rattus norvegicus, UniProt P23977)
Test: Inhibition of [3H]3-beta-(p-fluorophenyl)tropane-2beta-carboxylic acid methyl ester [3H]7a binding to Dopamine transporter of rat striatal membranes
Type: cell membranes, Membrane

Sodium-dependent dopamine transporter, sequence (P23977 whole entry): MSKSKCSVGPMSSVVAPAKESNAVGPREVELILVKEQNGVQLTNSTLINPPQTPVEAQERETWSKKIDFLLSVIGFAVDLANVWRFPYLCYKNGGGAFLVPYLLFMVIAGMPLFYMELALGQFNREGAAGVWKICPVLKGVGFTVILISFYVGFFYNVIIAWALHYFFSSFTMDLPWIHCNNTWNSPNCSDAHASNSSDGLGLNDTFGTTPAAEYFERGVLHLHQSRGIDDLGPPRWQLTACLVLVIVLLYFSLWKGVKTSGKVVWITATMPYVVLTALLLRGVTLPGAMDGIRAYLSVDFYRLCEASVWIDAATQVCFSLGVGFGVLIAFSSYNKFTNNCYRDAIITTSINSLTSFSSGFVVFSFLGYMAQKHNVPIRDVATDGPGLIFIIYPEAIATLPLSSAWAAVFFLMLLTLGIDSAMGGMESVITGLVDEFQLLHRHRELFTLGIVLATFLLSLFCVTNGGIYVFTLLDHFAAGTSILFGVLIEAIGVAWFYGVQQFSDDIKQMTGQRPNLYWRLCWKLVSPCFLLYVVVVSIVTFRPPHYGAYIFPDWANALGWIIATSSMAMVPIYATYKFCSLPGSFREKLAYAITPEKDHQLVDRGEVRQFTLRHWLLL

SMILES	IC50 [µM]
CN1[C@@H]2CC[C@H]1C[C@H](OC(=O)c1ccccc1)C2	21.2
COC(=O)C1C(OC(=O)c2ccccc2)C[C@H]2CCC1N2C(C)=O (some centres undefined)	3.37
COC(=O)C1C2CC[C@H](CC1OC(=O)c1ccccc1)N2 (some centres undefined)	0.303
COC(=O)C1C(OC(=O)c2ccccc2)C[C@H]2CCC1N2Cc1ccccc1 (some centres undefined)	0.668
COC(=O)C1C(OC(=O)c2ccccc2)C[C@H]2CCC1[N+]2(C)C (some centres undefined)	10.7
CN1CC2CC1C[C@@H](OC(=O)c1ccccc1)C2 (stereo in doubt; 4c)	19.8
CN1CC2CC1C[C@@H](OC(=O)c1ccccc1)C2 (stereo in doubt; 4d)	4.95
CN1CC2CC(OC(=O)c3ccccc3)CC1C2 (stereo in doubt; 4d-(+))	2.94
CN1CC2CC(OC(=O)c3ccccc3)CC1C2 (stereo in doubt; 4d-(-))	2.85

Source: ChEMBL document CHEMBL1126012 (J Med Chem, 1992)
